Data from publication PMC6236315 (Molecular Medicine Reports, 2018).
Structures can show the parent of a compound that is named as a salt.

How the values were obtained:
[1] = tested on: LAD2 mast cells; experiment: β-Hexosaminidase release; assay type: cell-based, human; settings: 37°C
[2] = tested on: LAD2 mast cells; experiment: LL-37 internalization into LAD2 cells; assay type: cell-based, human; settings: 37°C
[3] = chlorpromazine 2.5 µM, 30 min pre-treatment, then LL-37 5 µM, 40 min
[4] = genistein 10 µM, 30 min pre-treatment, then LL-37 5 µM, 40 min
[5] = pertussis toxin 250 ng/ml, 1 h pre-treatment, then LL-37 5 µM for 40 min

CN(C)CCCN1c2ccccc2Sc2ccc(Cl)cc21 [chlorpromazine, Chlorpromazine hydrochloride] was tested, and the “effect on LL-37-induced degranulation (β-hexosaminidase release)” value (from here on “effect on LL-37-induced degranulation”) [1, 3] was “inhibited degranulation” and the “effect on LL-37 internalization (fluorescence intensity)” value (“effect on LL-37 internalization” below) [2, 3] was “suppressed LL-37 internalization”.
For O=c1c(-c2ccc(O)cc2)coc2cc(O)cc(O)c12 [genistein], the “effect on LL-37-induced degranulation” value [1, 4] was “did not affect” and the “effect on LL-37 internalization” value [2, 4] was “did not affect”.
pertussis toxin was tested, and the “effect on LL-37-induced degranulation” value [1, 5] was “significantly suppressed” and the “effect on LL-37 internalization” value [2, 5] was “significantly suppressed”.
With O=C(N/N=C/c1ccc(O)c(O)c1)c1cc2ccccc2cc1O [dynasore, Dynasore] the “effect on LL-37-induced degranulation” value ([1]; dynasore 10 µM, 30 min pre-treatment, then LL-37 5 µM, 40 min) was “inhibited degranulation”.
